Measurements: patent publication US20220324865A1 (Bayer Aktiengesellschaft, priority 2018, published 2022)
Structures can show the parent of a compound that is named as a salt.

target: T1, human EP3 receptor (Homo sapiens, UniProt P43115); experiment: Cellular in vitro assay for determining EP3 receptor activity (human EP3 cell line, sulprostone-stimulated calcium luminescence); assay type: cell-based; settings: CHO cells expressing human EP3 and mitochondrial Clytin; antagonist mode, sulprostone at EC50; read-out: EP3 CHO mtCLY ANTAG IC50
T1 construct: expressed in transfected cells; host or cells: CHO K1 (Chinese Hamster Ovary), stably co-transfected with Galpha16 and mitochondrial clytin
T1 sequence (P43115 1-390): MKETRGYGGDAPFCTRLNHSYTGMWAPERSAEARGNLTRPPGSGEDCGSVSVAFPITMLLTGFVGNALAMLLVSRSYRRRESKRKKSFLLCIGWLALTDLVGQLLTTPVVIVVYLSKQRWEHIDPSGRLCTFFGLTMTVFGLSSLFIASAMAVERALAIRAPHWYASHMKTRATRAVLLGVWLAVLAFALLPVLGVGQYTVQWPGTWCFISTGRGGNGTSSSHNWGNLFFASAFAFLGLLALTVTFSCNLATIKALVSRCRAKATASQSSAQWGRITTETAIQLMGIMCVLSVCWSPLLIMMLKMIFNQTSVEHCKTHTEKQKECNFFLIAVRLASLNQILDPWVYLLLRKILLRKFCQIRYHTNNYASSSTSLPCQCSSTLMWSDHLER
Procedure, shortened: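 Antagonist activity was measured as inhibition of the luminescent calcium signal elicited by EC50 sulprostone, following 10 min compound pretreatment. The cell line was recombinant CHO K1 co-expressing human EP3, Gα16 and the photoprotein Clytin, reconstituted with coelenterazine.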

Q: Which IC50 does the source give for `Cc1cccc2ncc(-c3cn4nc(C(=O)NC5CCOC5)c(C(C)C)c4c(=O)[nH]3)cc12` (stereo not drawn) [Example 4-21, 3-Isopropyl-6-(5-methyl-3-quinolyl)-4-oxo-N-(tetrahydrofuran-3-yl)-5H-pyrazolo[1,5-a]pyrazine-2-carboxamide] here?
A: Its IC50 is 1.95 nM.

Q: For `O=C(NC1CCN(CC(F)F)C1)c1nn2cc(-c3ccc4ccccc4c3)[nH]c(=O)c2c1C(F)(F)F` (stereo not drawn) [6-518], which IC50 is on record?
A: Its IC50 is 1.7 nM.

Q: `Cc1cc(-c2cn3nc(C(=O)N[C@@H](C)C4CC4)c(C4CC(F)(F)C4)c3c(=O)[nH]2)ccc1Cl` [6-558] was tested. Which IC50 did it give?
A: The IC50 was 1.15 nM.

Q: With `CC(C)(O)[C@@H](NC(=O)c1nn2cc(-c3ccc(Cl)c(F)c3)[nH]c(=O)c2c1C(F)(F)F)c1ccc(F)cc1` [6-649] as the molecule, how does the IC50 read?
A: Its IC50 is 9.97 nM.

Q: How did the IC50 turn out when `CC(NC(=O)c1cc2c(=O)[nH]c(-c3ccc4ccccc4c3)cn2n1)c1ccc(O)cc1` (single isomer, unassigned) [6-542] was run?
A: The IC50 was 10.5 nM.

Q: Which IC50 does the source give for `CC(C)c1c(C(=O)N[C@H](C)c2ccc(F)cc2)nn2cc(-c3ccc4ccccc4c3)[nH]c(=O)c12` [Example 1-8, N-[(1R)-1-(4-Fluorophenyl)ethyl]-6-(naphthalen-2-yl)-4-oxo-3-(propan-2-yl)-4,5-dihydropyrazolo-[1,5-a]pyrazine-2-carboxamide] here?
A: The IC50 was 1.36 nM.

Q: With `Cc1ccc(-c2cn3nc(C(=O)NCC(O)C(F)(F)F)c(C4CC4)c3c(=O)[nH]2)cc1C(F)(F)F` (racemic) [6-243] as the molecule, how does the IC50 read?
A: The IC50 was 2 nM.

Q: Which IC50 does the source give for `CN1CC(NC(=O)c2nn3cc(-c4ccc5ccccc5c4)[nH]c(=O)c3c2C(F)(F)F)(c2ccc(F)cc2)C1` [Example 1-31, N-[3-(4-Fluorophenyl)-1-methylazetidin-3-yl]-6-(naphthalen-2-yl)-4-oxo-3-(trifluoromethyl)-5H-pyrazolo[1,5-a]pyrazine-2-carboxamide trifluoroacetic acid salt] here?
A: The IC50 was 1.84 nM.

Q: How did the IC50 turn out when `Cc1cc(-c2cn3nc(C(=O)N[C@@H](c4ccc(F)cc4)C(C)(C)O)c(C(F)(F)F)c3c(=O)[nH]2)ccc1F` [6-648] was run?
A: Its IC50 is 2.77 nM.

Q: How did the IC50 turn out when `Cc1ccc(-c2[nH]c(=O)c3c(C4CC4)c(C(=O)N[C@H](C)c4ccc(F)cc4)nn3c2F)cc1Cl` [6-663] was run?
A: Its IC50 is 3.85 nM.

Q: How did the IC50 turn out when `O=C(Nc1cccc2ncccc12)c1cc2c(=O)[nH]c(-c3ccc4ccccc4c3)cn2n1` [Example 2-45, N-(Chinolin-5-yl)-6-(2-naphthyl)-4-oxo-4,5-dihydropyrazolo[1,5-a]pyrazine-2-carboxamide] was run?
A: Its IC50 is 6.05 nM.

Q: With `O=C(NCc1cc(F)ccc1F)c1cc2c(=O)[nH]c(-c3ccc4ccccc4c3)cn2n1` [Example 2-53, N-(2,5-Difluorobenzyl)-6-(2-naphthyl)-4-oxo-4,5-dihydropyrazolo[1,5-a]pyrazine-2-carboxamide] as the molecule, how does the IC50 read?
A: Its IC50 is 3.7 nM.

Q: For `Cc1ncc(-c2cn3nc(C(=O)N[C@@H](c4ccc(F)cc4)C(C)(C)O)c(C4CC4)c3c(=O)[nH]2)cc1Cl` [6-579], which IC50 is on record?
A: Its IC50 is 0.86 nM.

Q: For `Cc1cccc2ncc(-c3cn4nc(C(=O)N[C@@H]5CCCc6ccccc65)c(C(C)C)c4c(=O)[nH]3)cc12` [Example 4-5, 6-(5-Methylquinolin-3-yl)-4-oxo-3-(propan-2-yl)-N-[(7R)-1,2,3,4-tetrahydronaphthalen-1-yl]-4,5-dihydropyrazolo[1,5-a]pyrazine-2-carboxamide], which IC50 is on record?
A: The IC50 was 7.7 nM.

Q: Which IC50 does the source give for `Cc1cccc2ncc(-c3cn4nc(C(=O)NC(CO)c5ccc(Br)cc5)c(C(C)C)c4c(=O)[nH]3)cc12` (stereo not drawn) [Example 4-75, N-[1-(4-Bromophenyl)-2-hydroxyethyl]-3-isopropyl-6-(5-methyl-3-quinolyl)-4-oxo-5H-pyrazolo[1,5-a]pyrazine-2-carboxamide] here?
A: The IC50 was 1.25 nM.

Q: With `CC(C)(O)[C@@H](NC(=O)c1nn2cc(-c3cccc(Cl)c3)[nH]c(=O)c2c1C1CC1)c1ccc(F)cc1` [6-677] as the molecule, how does the IC50 read?
A: The IC50 was 0.45 nM.

Q: Which IC50 does the source give for `Cc1cc(-c2cn3nc(C(=O)N[C@@H](c4ccc(F)cc4)C(F)(F)CO)c(C(F)(F)F)c3c(=O)[nH]2)ccc1F` [6-647] here?
A: Its IC50 is 3.03 nM.

Q: Which IC50 does the source give for `Cc1cc(-c2cn3nc(C(=O)NC(c4ccc(F)cc4)C(C)(C)O)c(C4CC4)c3c(=O)[nH]2)ccc1C(F)(F)F` (racemic) [6-133] here?
A: The IC50 was 5.05 nM.

Q: `Cc1ccc(-c2cn3nc(C(=O)NCCC(O)C(F)(F)F)c(C4CC4)c3c(=O)[nH]2)cc1F` (single isomer, unassigned) [6-368] was tested. Which IC50 did it give?
A: Its IC50 is 0.87 nM.

Q: `Cc1cc(-c2cn3nc(C(=O)NCCC(O)C(F)(F)F)c(C4CC4)c3c(=O)[nH]2)ccc1Cl` (racemic) [6-309] was tested. Which IC50 did it give?
A: The IC50 was 1.13 nM.

Q: `Cc1nn(C(C)CNC(=O)c2cc3c(=O)[nH]c(-c4ccc5ccccc5c4)cn3n2)c(C)c1Cl` (stereo not drawn) [Example 2-46, N-[2-(4-Chlor-3,5-dimethyl-1H-pyrazol-1-yl)propyl]-6-(2-naphthyl)-4-oxo-4,5-dihydropyrazolo[1,5-a]pyrazine-2-carboxamide] was tested. Which IC50 did it give?
A: Its IC50 is 2.95 nM.

Q: With `Cc1cc(-c2cn3nc(C(=O)N[C@H](C)c4ccc(F)cc4)c(C4CC4)c3c(=O)[nH]2)ccc1C(F)(F)F` [Example 1-131, 3-Cyclopropyl-N-[(1R)-1-(4-fluorophenyl)ethyl]-6-[3-methyl-4-(trifluoromethyl)phenyl]-4-oxo-4,5-dihydropyrazolo[1,5-a]pyrazine-2-carboxamide] as the molecule, how does the IC50 read?
A: The IC50 was 5.45 nM.

Q: For `[N-]=[N+]=NC[C@H](NC(=O)c1cc2c(=O)[nH]c(-c3ccc4ccccc4c3)cn2n1)c1ccccc1` [6-59], which IC50 is on record?
A: The IC50 was 4.2 nM.

Q: `CC(C)(O)[C@@H](NC(=O)c1nn2cc(-c3ccc(Cl)c(Cl)c3)[nH]c(=O)c2c1C1CC(F)(F)C1)c1ccc(F)cc1` [6-552] was tested. Which IC50 did it give?
A: Its IC50 is 2.55 nM.

Q: Which IC50 does the source give for `Cc1cc(-c2cn3nc(C(=O)NCCN(CC(F)F)C4CC4)c(C4CC4)c3c(=O)[nH]2)ccc1C(F)(F)F` [6-128] here?
A: Its IC50 is 9.25 nM.

Q: `COC[C@@H](NC(=O)c1nn2cc(-c3ccc(C)c(C)c3)[nH]c(=O)c2c1C#N)c1ccccc1` [Example 1-74, 3-Cyano-6-(3,4-dimethylphenyl)-N-[(1S)-2-methoxy-1-phenylethyl]-4-oxo-4,5-dihydropyrazolo-[1,5-a]pyrazine-2-carboxamide] was tested. Which IC50 did it give?
A: The IC50 was 0.92 nM.

Q: With `COc1ccc(C(NC(=O)c2nn3cc(-c4ccc5ccccc5c4)[nH]c(=O)c3c2C#N)C2CC2)cc1` (stereo not drawn) [Example 3-56, 3-Cyano-N-[cyclopropyl(4-methoxyphenyl)methyl]-6-(2-naphthyl)-4-oxo-5H-pyrazolo[1,5-a]pyrazine-2-carboxamide] as the molecule, how does the IC50 read?
A: The IC50 was 3.15 nM.

Q: For `COc1ccc(C2(NC(=O)c3nn4cc(-c5ccc(C)c(F)c5)[nH]c(=O)c4c3C3CC3)CN(C)C2)cc1` [6-365], which IC50 is on record?
A: Its IC50 is 3.15 nM.

Q: With `Cc1c(C(=O)NCCOCC(F)(F)F)nn2c(C)c(-c3ccc4ccccc4c3)[nH]c(=O)c12` [Example 3-3, 3,7-Dimethyl-6-(naphthalen-2-yl)-4-oxo-N-[2-(2,2,2-trifluoroethoxy)ethyl]-4,5-dihydropyrazolo[1,5-a]pyrazine-2-carboxamide] as the molecule, how does the IC50 read?
A: The IC50 was 5.4 nM.

Q: `C[C@H](NC(=O)c1cc2c(=O)[nH]c(-c3ccc4ccccc4c3)cn2n1)c1ccc(F)cc1` [6-79] was tested. Which IC50 did it give?
A: Its IC50 is 4.57 nM.

Q: With `CC(CN1CCOCC1)NC(=O)c1nn2cc(-c3ccc4ccccc4c3)[nH]c(=O)c2c1C(F)(F)F` (racemic) [6-522] as the molecule, how does the IC50 read?
A: Its IC50 is 16.9 nM.

Q: With `COc1ccc(C(C)NC(=O)c2nn3cc(-c4cnc5cccc(C)c5c4)[nH]c(=O)c3c2C(C)C)cn1` (stereo not drawn) [Example 4-6, 3-Isopropyl-N-[1-(6-methoxy-3-pyridyl)ethyl]-6-(5-methyl-3-quinolyl)-4-oxo-5H-pyrazolo[1,5-a]pyrazine-2-carboxamide] as the molecule, how does the IC50 read?
A: The IC50 was 1.16 nM.

Q: `N#Cc1c(C(=O)NC2Cc3ccccc3C2)nn2cc(-c3ccc4ccccc4c3)[nH]c(=O)c12` [Example 3-55, 3-Cyano-N-(2,3-dihydro-1H-inden-2-yl)-6-(naphthalen-2-yl)-4-oxo-4,5-dihydropyrazolo[1,5-a]pyrazine-2-carboxamide] was tested. Which IC50 did it give?
A: The IC50 was 7.2 nM.

Q: For `CC(C)(O)[C@@H](NC(=O)c1nn2cc(-c3ccc(Cl)c(F)c3)[nH]c(=O)c2c1C1CC1(F)F)c1ccc(F)cc1` (stereo partly drawn) [6-564], which IC50 is on record?
A: The IC50 was 4.05 nM.

Q: With `CC(NC(=O)c1nn2cc(-c3ccc4ccccc4c3)[nH]c(=O)c2c1C#N)c1ccc(F)cc1` (stereo not drawn) [Example 3-52, 3-Cyano-N-[1-(4-fluorophenyl)ethyl]-6-(2-naphthyl)-4-oxo-5H-pyrazolo[1,5-a]pyrazine-2-carboxamide] as the molecule, how does the IC50 read?
A: The IC50 was 2.25 nM.

Q: `COc1ccc([C@@H](C)NC(=O)c2nn3cc(-c4ccc(Cl)c(F)c4)[nH]c(=O)c3c2C2CC2)cn1` [6-87] was tested. Which IC50 did it give?
A: Its IC50 is 0.93 nM.

Q: With `O=C(NCc1ncc(C(F)(F)F)cc1Cl)c1nn2cc(-c3ccc4ccccc4c3)[nH]c(=O)c2c1C(F)(F)F` [6-8] as the molecule, how does the IC50 read?
A: The IC50 was 1.05 nM.

Q: With `CC(C)(O)[C@@H](NC(=O)c1nn2cc(-c3cc(F)c(Cl)c(F)c3)[nH]c(=O)c2c1C1CC1)c1ccc(F)cc1` [6-475] as the molecule, how does the IC50 read?
A: The IC50 was 2.58 nM.

Q: `Cc1cccc2ncc(-c3cn4nc(C(=O)NC(c5ccccc5)C(F)F)c(C(C)C)c4c(=O)[nH]3)cc12` (stereo not drawn) [Example 4-68, N-(2,2-Difluoro-1-phenylethyl)-3-isopropyl-6-(5-methyl-3-quinolyl)-4-oxo-5H-pyrazolo[1,5-a]pyrazine-2-carboxamide] was tested. Which IC50 did it give?
A: Its IC50 is 3 nM.

Q: How did the IC50 turn out when `COC[C@@H](NC(=O)c1nn2cc(-c3ccc4ccccc4c3)[nH]c(=O)c2c1C(F)(F)F)c1ccccc1` [6-495] was run?
A: The IC50 was 0.61 nM.

Q: With `CCn1nccc1C(C)NC(=O)c1nn2c(C)c(-c3ccc4ccccc4c3)[nH]c(=O)c2c1C` (stereo not drawn) [Example 3-12, N-[1-(1-Ethyl-1H-pyrazol-5-yl)ethyl]-3,7-dimethyl-6-(2-naphthyl)-4-oxo-4,5-dihydropyrazolo[1,5-a]pyrazine-2-carboxamide] as the molecule, how does the IC50 read?
A: Its IC50 is 1.75 nM.

Q: `Cc1cc(-c2cn3nc(C(=O)N[C@H](CN4CC(F)C4)c4ccc(F)cc4)c(C(F)(F)F)c3c(=O)[nH]2)ccc1Cl` [6-231] was tested. Which IC50 did it give?
A: The IC50 was 3.25 nM.
